# Laboratory results as given in ChEMBL document CHEMBL6096738, “Optimization of Single Relaxin B-Chain Peptide Leads to the Identification of R2R01, a Potent, Long-Acting RXFP1 Agonist for Cardiovascular and Renal Diseases” (J Med Chem, 2025).
# Starred links: 1 amine or outer side, 2 acyl side, 3 side chain; linkers in the order of their positions; H or OH if unused. Non-standard residues stand in square brackets, D forms with d. Residues, ends and D or L forms follow the SMILES beside them. Groups on a side chain read outwards from the residue. *: point of attachment. X2 = CCCCCCCCCCCCCCCC(=O)N[C@@H](CCC(=O)N[C@@H](CCC(=O)N[C@@H](CCC(=O)NCCCOCCOCCOCCCNC(=O)CCC(=O)NCCCOCCOCCOCCCNC(=O)CCC(=O)NCCCOCCOCCOCCCN*)C(=O)O)C(=O)O)C(=O)O; γGlu = O=C(O)[C@H](CCC(=O)[*:2])N[*:1]; Palmitoyl = CCCCCCCCCCCCCCCC(=O)*; Suc = O=C(CCC(=O)[*:2])[*:1]; αMeK = C[C@](N)(CCCCN)C(=O)O; Nle = CCCC[C@H](N)C(=O)O; AEEA = NCCOCCOCC(=O)O; Aib = CC(C)(N)C(=O)O
# Legend:
# Relaxin receptor 1 [1] = target: T1, Relaxin receptor 1 (Homo sapiens, UniProt Q9HBX9); assay: Agonist activity at human RXFP1 expressed in human OVCAR-5 cells assessed as intracellular cAMP accumulation incubated for 30 mins by HTRF assay; type: functional, cell-based
# T1 sequence (Q9HBX9 whole entry): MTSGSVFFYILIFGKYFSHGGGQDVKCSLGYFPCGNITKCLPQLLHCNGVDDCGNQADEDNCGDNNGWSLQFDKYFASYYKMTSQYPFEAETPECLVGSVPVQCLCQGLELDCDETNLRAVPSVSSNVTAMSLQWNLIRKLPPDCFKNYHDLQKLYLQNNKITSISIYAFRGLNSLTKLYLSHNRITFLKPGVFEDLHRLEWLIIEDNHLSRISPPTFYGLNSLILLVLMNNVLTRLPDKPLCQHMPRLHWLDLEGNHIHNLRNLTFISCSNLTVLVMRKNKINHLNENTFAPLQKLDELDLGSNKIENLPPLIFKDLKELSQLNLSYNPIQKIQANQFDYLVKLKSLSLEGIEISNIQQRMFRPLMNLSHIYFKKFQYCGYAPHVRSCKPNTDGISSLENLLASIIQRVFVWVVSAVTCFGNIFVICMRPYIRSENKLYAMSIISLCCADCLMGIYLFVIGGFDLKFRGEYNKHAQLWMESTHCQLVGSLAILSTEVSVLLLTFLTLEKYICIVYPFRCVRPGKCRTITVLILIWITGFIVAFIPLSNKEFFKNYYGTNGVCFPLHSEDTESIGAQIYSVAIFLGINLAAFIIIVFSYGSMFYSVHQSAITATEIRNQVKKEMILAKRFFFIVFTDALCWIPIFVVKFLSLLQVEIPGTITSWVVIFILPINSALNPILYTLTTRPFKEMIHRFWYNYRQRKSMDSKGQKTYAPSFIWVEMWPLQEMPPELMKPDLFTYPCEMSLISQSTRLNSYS
# [2] = Induction of mast cell degranulation in human LAD2 cells assessed as beta-hexosaminidase release by measuring maximal efficacy of 4-methylumbelliferyl N-acetyl-beta-D-glucosaminide hydrolysis at 33 uM incubated for 30 mins by plate reader analysis relative to control; type: toxicity, cell-based; conditions: probe 4-methylumbelliferyl N-acetyl-beta-D-glucosaminide
# [3] = target: T2, Relaxin receptor 1 (Homo sapiens) (UniProt Q9HBX9); assay: Agonist activity at human RXFP1 expressed in 2%HSA treated human OVCAR-5 cells assessed as intracellular cAMP accumulation by measuring maximal efficacy incubated for 30 mins with 2% HSA pretreated compound by HTRF assay relative to control; type: functional, cell-based; conditions: filed as agonist
# T2 sequence (whole entry): T1 sequence (Q9HBX9 whole entry)
# Relaxin receptor 1 [4] = target: T1, Relaxin receptor 1; assay: Agonist activity at human RXFP1 expressed in 2%HSA treated human OVCAR-5 cells assessed as intracellular cAMP accumulation incubated for 30 mins with 2% HSA pretreated compound by HTRF assay; type: functional, cell-based
# [5] = Induction of mast cell degranulation in human LAD2 cells assessed as beta-hexosaminidase release by measuring 4-methylumbelliferyl N-acetyl-beta-D-glucosaminide hydrolysis incubated for 30 mins by plate reader analysis; type: toxicity, cell-based; conditions: probe 4-methylumbelliferyl N-acetyl-beta-D-glucosaminide
# [6] = target: T2, Relaxin receptor 1 (Homo sapiens); assay: Agonist activity at human RXFP1 expressed in human OVCAR-5 cells assessed as intracellular cAMP accumulation by measuring maximal efficacy incubated for 30 mins by HTRF assay relative to control; type: functional, cell-based; conditions: filed as agonist
# [7] = Induction of mast cell degranulation in human LAD2 cells assessed as beta-hexosaminidase release by measuring maximal efficacy of 4-methylumbelliferyl N-acetyl-beta-D-glucosaminide hydrolysis at 100 uM incubated for 30 mins by plate reader analysis relative to control; type: toxicity, cell-based; conditions: probe 4-methylumbelliferyl N-acetyl-beta-D-glucosaminide
# [8] = Half-life in male Sprague-Dawley rat at 1 mg/kg, iv measured after 198 hrs by LC-HRMS analysis; type: ADME, organism-based; conditions: in vivo
Structure (SMILES),EC50 (Relaxin receptor 1 [1]) [nM],"Emax at 0.5 h, 33 µM [2] [%]",Emax [3] [%],EC50 (Relaxin receptor 1 [4]) [nM],EC50 at 30 min [5] [nM],Emax [6] [%],"Emax at 0.5 h, 100 µM [7] [%]",half-life [8] [h]
CCCCCCCCCCCCCCCC(=O)N[C@@H](CCC(=O)N[C@@H](CCC(=O)N[C@@H](CCC(=O)NCCCOCCOCCOCCCNC(=O)CCC(=O)NCCCOCCOCCOCCCNC(=O)CCC(=O)NCCCOCCOCCOCCCNC(=O)CCC(=O)NCCCC[C@H](NC(=O)CNC(=O)[C@H](CCC(=O)O)NC(=O)C(C)(C)NC(=O)C(C)(C)NC(=O)[C@@H](NC(=O)[C@H](CCCCNC(C)=O)NC(=O)[C@H](C)NC(=O)[C@H](CCCNC(=N)N)NC(=O)[C@@H](NC(=O)[C@H](CCCCN)NC(=O)[C@H](CCC(=O)O)NC(=O)[C@H](CCCNC(=N)N)NC(=O)CNC(=O)[C@H](CCC(=O)O)NC(=O)[C@H](CC(C)C)NC(C)=O)C(C)C)[C@@H](C)CC)C(=O)N[C@@H](CO)C(=O)N[C@H](C(=O)N[C@@H](Cc1c[nH]c2ccccc12)C(=O)N[C@@H](CO)C(=O)NC(C)(C)C(=O)N[C@@H](CCCNC(=N)N)C(=O)N[C@@H](CCCCN)C(=O)N[C@@H](CCCCNC(C)=O)C(N)=O)[C@@H](C)O)C(=O)O)C(=O)O)C(=O)O (Ac-LEGREKVRAK(Ac)I[Aib][Aib]EGK([Suc-X2])STWS[Aib]RKK(Ac)-NH2),1.35,67.5,90,105,5900,98,,
CCCCCCCCCCCCCCCC(=O)N[C@@H](CCC(=O)N[C@@H](CCC(=O)N[C@@H](CCC(=O)NCCCOCCOCCOCCCNC(=O)CCC(=O)NCCCOCCOCCOCCCNC(=O)CCC(=O)NCCCOCCOCCOCCCNC(=O)CCC(=O)NCCCC[C@H](NC(=O)[C@H](C)NC(=O)[C@H](CCCNC(=N)N)NC(=O)[C@@H](NC(=O)[C@H](CCCCN)NC(=O)[C@H](CCC(=O)O)NC(=O)[C@H](CCCNC(=N)N)NC(=O)CNC(=O)[C@H](CCC(=O)O)NC(=O)[C@H](CC(C)C)NC(C)=O)C(C)C)C(=O)N[C@H](C(=O)NC(C)(C)C(=O)NC(C)(C)C(=O)N[C@@H](CCC(=O)O)C(=O)NCC(=O)N[C@@H](CCC(N)=O)C(=O)N[C@@H](CO)C(=O)N[C@H](C(=O)N[C@@H](Cc1c[nH]c2ccccc12)C(=O)N[C@@H](CO)C(=O)NC(C)(C)C(=O)N[C@@H](CCCNC(=N)N)C(=O)N[C@@H](CCCCN)C(=O)N[C@@H](CCCCNC(C)=O)C(N)=O)[C@@H](C)O)[C@@H](C)CC)C(=O)O)C(=O)O)C(=O)O (Ac-LEGREKVRAK([Suc-X2])I[Aib][Aib]EGQSTWS[Aib]RKK(Ac)-NH2),0.61,,90,68.6,12500,95,40,
CCCCCCCCCCCCCCCC(=O)N[C@H](CCC(=O)N[C@H](CCC(=O)N[C@H](CCC(=O)NCCCOCCOCCOCCCNC(=O)CCC(=O)NCCCOCCOCCOCCCNC(=O)CCC(=O)NCCCOCCOCCOCCCNC(=O)CCC(=O)NCCCC[C@H](NC(=O)[C@H](CO)NC(=O)[C@H](Cc1c[nH]c2ccccc12)NC(=O)[C@@H](NC(=O)[C@H](CO)NC(=O)[C@H](CCC(N)=O)NC(=O)CNC(=O)[C@H](CCC(=O)O)NC(=O)C(C)(C)NC(=O)C(C)(C)NC(=O)[C@@H](NC(=O)[C@H](CCCCNC(C)=O)NC(=O)[C@H](C)NC(=O)[C@H](CCCNC(=N)N)NC(=O)[C@@H](NC(=O)[C@H](CCCCN)NC(=O)[C@H](CCC(=O)O)NC(=O)[C@H](CCCNC(=N)N)NC(=O)CNC(=O)[C@H](CCC(=O)O)NC(=O)[C@H](CC(C)C)NC(C)=O)C(C)C)[C@@H](C)CC)[C@H](C)O)C(=O)N[C@@H](CCCNC(=N)N)C(=O)N[C@@H](CCCCN)C(=O)N[C@@H](CCCCNC(C)=O)C(N)=O)C(=O)O)C(=O)O)C(=O)O,0.38,,92,90,13400,94,24,
CCCCCCCCCCCCCCCC(=O)N[C@@H](CCC(=O)N[C@@H](CCC(=O)N[C@@H](CCC(=O)NCCCOCCOCCOCCCNC(=O)CCC(=O)NCCCOCCOCCOCCCNC(=O)CCC(=O)NCCCOCCOCCOCCCNC(=O)CCC(=O)NCCCC[C@H](NC(=O)[C@H](CCC(N)=O)NC(=O)CNC(=O)[C@H](CCC(=O)O)NC(=O)C(C)(C)NC(=O)C(C)(C)NC(=O)[C@@H](NC(=O)[C@H](CCCCNC(C)=O)NC(=O)[C@H](C)NC(=O)[C@H](CCCNC(=N)N)NC(=O)[C@@H](NC(=O)[C@H](CCCCN)NC(=O)[C@H](CCC(=O)O)NC(=O)[C@H](CCCNC(=N)N)NC(=O)CNC(=O)[C@H](CCC(=O)O)NC(=O)[C@H](CC(C)C)NC(C)=O)C(C)C)[C@@H](C)CC)C(=O)N[C@H](C(=O)N[C@@H](Cc1c[nH]c2ccccc12)C(=O)N[C@@H](CO)C(=O)NC(C)(C)C(=O)N[C@@H](CCCNC(=N)N)C(=O)N[C@@H](CCCCN)C(=O)N[C@@H](CCCCNC(C)=O)C(N)=O)[C@@H](C)O)C(=O)O)C(=O)O)C(=O)O (Ac-LEGREKVRAK(Ac)I[Aib][Aib]EGQK([Suc-X2])TWS[Aib]RKK(Ac)-NH2),25,,,> 2000,12800,90,32,
CCCCCCCCCCCCCCCC(=O)N[C@@H](CCC(=O)N[C@@H](CCC(=O)N[C@@H](CCC(=O)NCCOCCOCC(=O)NCCOCCOCC(=O)NCCOCCOCC(=O)NCCOCCOCC(=O)NCCCC[C@H](NC(=O)[C@H](CCCCNC(C)=O)NC(=O)[C@H](C)NC(=O)[C@H](CCCNC(=N)N)NC(=O)[C@](C)(CCCCN)NC(=O)[C@H](CO)NC(=O)[C@H](Cc1ccccc1)NC(=O)[C@@H](NC(=O)[C@H](CO)NC(=O)[C@H](CCCC)NC(=O)CNC(=O)[C@H](CCC(=O)O)NC(=O)C(C)(C)NC(=O)C(C)(C)NC(=O)[C@@H](NC(=O)[C@H](CCCCNC(C)=O)NC(=O)[C@H](C)NC(=O)[C@H](CCCNC(=N)N)NC(=O)[C@@H](NC(=O)[C@H](CCCCN)NC(=O)[C@H](CCC(=O)O)NC(=O)[C@H](CCCNC(=N)N)NC(=O)CNC(=O)[C@H](CCC(=O)O)NC(=O)[C@H](CC(C)C)NC(C)=O)C(C)C)[C@@H](C)CC)[C@@H](C)O)C(N)=O)C(=O)O)C(=O)O)C(=O)O (Ac-LEGREKVRAK(Ac)I[Aib][Aib]EG[Nle]STFS[αMeK]RAK(Ac)K([AEEA-AEEA-AEEA-AEEA-γGlu-γGlu-γGlu-Palmitoyl])-NH2),0.27,58,96,20.1,3000,89,,7.3
CCCCCCCCCCCCCCCC(=O)N[C@@H](CCC(=O)N[C@@H](CCC(=O)N[C@@H](CCC(=O)NCCCOCCOCCOCCCNC(=O)CCC(=O)NCCCOCCOCCOCCCNC(=O)CCC(=O)NCCCOCCOCCOCCCNC(=O)CCC(=O)NCCCC[C@H](NC(=O)[C@@H](NC(=O)[C@H](CCCCNC(C)=O)NC(=O)[C@H](C)NC(=O)[C@H](CCCNC(=N)N)NC(=O)[C@@H](NC(=O)[C@H](CCCCN)NC(=O)[C@H](CCC(=O)O)NC(=O)[C@H](CCCNC(=N)N)NC(=O)CNC(=O)[C@H](CCC(=O)O)NC(=O)[C@H](CC(C)C)NC(C)=O)C(C)C)[C@@H](C)CC)C(=O)NC(C)(C)C(=O)N[C@@H](CCC(=O)O)C(=O)NCC(=O)N[C@@H](CCC(N)=O)C(=O)N[C@@H](CO)C(=O)N[C@H](C(=O)N[C@@H](Cc1c[nH]c2ccccc12)C(=O)N[C@@H](CO)C(=O)NC(C)(C)C(=O)N[C@@H](CCCNC(=N)N)C(=O)N[C@@H](CCCCN)C(=O)N[C@@H](CCCCNC(C)=O)C(N)=O)[C@@H](C)O)C(=O)O)C(=O)O)C(=O)O (Ac-LEGREKVRAK(Ac)IK([Suc-X2])[Aib]EGQSTWS[Aib]RKK(Ac)-NH2),0.21,,90,80,13600,87,11,
